Test results from US20060160811A1, “Aryl-condensed 3-arylpridine compounds and use thereof for controlling pathogenic fungi” (priority 2003, published 2006).

Tested on: not given
Assay: not given
Settings: not given

| melting point | Compound |
| --- | --- |
| 169 °C | Fc1cc(F)c(-c2c(Cl)nc3ncncc3c2Cl)c(F)c1 [Example 2, 5,7-Dichloro-6-(2,4,6-trifluorophenyl)pyrido[2,3-d]pyrimidine] |
| 146 °C | Fc1cc(F)c(-c2c(OCc3ccccc3)nc3ncncc3c2Cl)c(F)c1 (hydrate or solvate) [Example 3, 7-Benzyloxy-5-chloro-6-(2,4,6-trifluorophenyl)pyrido[2,3-d]pyrimidine] |
| 315 °C | Cc1ccc2c(O)c(-c3c(F)cc(F)cc3F)c(C)nc2n1 [Example 5, 2,7-Dimethyl-3-(2,4,6-trifluorophenyl)-[1,8]naphthyridin-4-ol] |
| 348 °C (dec.) | Oc1nc2ncncc2c(O)c1-c1c(F)cc(F)cc1F [Example 1, 6-(2,4,6-Trifluorophenyl)pyrido[2,3-d]pyrimidine-5,7-diol] |
| 268 °C | CC1CCN(c2c(-c3c(F)cc(F)cc3F)c(O)nc3ncncc23)CC1 [Example 8, 5-(4-Methylpiperidin-1-yl)-6-(2,4,6-trifluorophenyl)pyrido[2,3-d]pyrimidin-7-ol] |

Tested on: Leptosphaeria nodorum
Assay: Activity against leaf blotch on wheat caused by Leptosphaeria nodorum, protective application
Type: in vivo
Settings: protective spray, wheat cultivar Kanzler, inoculated next day, visual rating after 8 days, untreated control 80%
Method: The active compounds were prepared as a stock solution with 0.25% by weight of active compound in acetone or DMSO (dimethyl sulfoxide). 1% by weight of the emulsifier Uniperol® EL (wetting agent having emulsifying and dispersing action based on ethoxylated alkylphenols) was added to this solution, and the solution was diluted with water to the desired concentration.
Activity against leaf blotch on wheat caused by Leptosphaeria nodorum, protective application.
Pots with wheat plants of the cultivar “Kanzler” were sprayed to runoff point with an aqueous suspension having the concentration of active compound stated below. The next day, the pots were inoculated with an aqueous spore suspension of Leptosphaeria nodorum. The plants were then placed in a chamber at 20° C. and maximum atmospheric humidity. After 8 days, the leaf blotch on the untreated but infected control plants had developed to such an extent that the degree of infection could be determined visually in %.

| Compound | Leaf infection [%] at 250 ppm [%] |
| --- | --- |
| Oc1nc2nccnc2c(O)c1-c1c(F)cc(F)cc1F | 10 |
| CC1CCN(c2nc3ncncc3c(Cl)c2-c2c(F)cc(F)cc2F)CC1 | 3 |
| Fc1cc(F)c(-c2c(Cl)nc3ncncc3c2Cl)c(F)c1 [drawing 26] | 3 |
